Assay results from patent EP4603105A1, “PHARMACEUTICAL COMPOSITION CONTAINING CYCLIC COMPOUND HAVING SELECTIVE KRAS INHIBITORY EFFECT AGAINST HRAS AND NRAS” (CHUGAI SEIYAKU KABUSHIKI KAISHA, priority 2022, dated 2024).
Like-named read-outs stand apart in the source and are kept apart here. *1 amine or outer side, *2 acyl side, *3 side chain or, on linkers, in order; H or OH if unused. Where a SMILES comes first, the peptide text is derived from it. Bridges are numbered along the chain shown (N, C = ends). [ ]: non-standard residue; d: D form. The star is where a group is joined. hPhe(3-Cl-4-CF3) = N[C@@H](CCc1ccc(C(F)(F)F)c(Cl)c1)C(=O)O; NPrPhe(4-CF3) = CCCN[C@@H](Cc1ccc(C(F)(F)F)cc1)C(=O)O; X49 = Cc1ccc(C[C@@H](C(=O)[*:2])N(CC2CC2)[*:1])cc1; X21 = CCCN([C@H](C(=O)[*:2])C1CCCC1)[*:1]; NMeGly(cPent) = CN[C@H](C(=O)O)C1CCCC1; NMeD = CN[C@@H](CC(=O)O)C(=O)O; NMeL = CN[C@@H](CC(C)C)C(=O)O; Morpholide = C1CN(*)CCO1; NMeA = CN[C@@H](C)C(=O)O; Ac5c = NC1(C(=O)O)CCCC1; Aze = O=C(O)[C@@H]1CCN1; Ac4c = NC1(C(=O)O)CCC1; NPrGly = CCCNCC(=O)O; NEtG = CCNCC(=O)O; Sar = CNCC(=O)O

How the values were obtained:
[1] = biological target: GDP-bound NRAS wild-type protein (Homo sapiens, UniProt P01111); assay: Binding to NRAS by surface plasmon resonance (SPR), KD and KD ratio to KRAS
Chain of GDP-bound NRAS wild-type protein (P01111 whole entry): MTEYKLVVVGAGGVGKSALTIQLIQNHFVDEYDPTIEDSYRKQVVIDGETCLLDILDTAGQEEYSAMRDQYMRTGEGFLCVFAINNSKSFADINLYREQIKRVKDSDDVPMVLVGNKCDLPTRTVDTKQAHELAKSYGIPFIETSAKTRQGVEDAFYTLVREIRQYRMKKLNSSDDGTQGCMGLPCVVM
Summary of the method: (§1)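 Each cycle, GDP-bound biotin-Avi RAS was captured (~100–300 RU), compound concentrations were injected low to high for 75 s each at 100 µL/min, then the chip was regenerated. Buffer: HBS pH 7.4, 10 mM MgCl2, 10 µM GDP, 1 mM DTT, 4% DMSO; 30°C. KD from a 1:1 binding model.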

[2] = biological target: HRAS wild-type protein (Homo sapiens, UniProt P01112); assay: Binding to HRAS by surface plasmon resonance (SPR), KD and KD ratio to KRAS
Chain of HRAS wild-type protein (P01112 whole entry): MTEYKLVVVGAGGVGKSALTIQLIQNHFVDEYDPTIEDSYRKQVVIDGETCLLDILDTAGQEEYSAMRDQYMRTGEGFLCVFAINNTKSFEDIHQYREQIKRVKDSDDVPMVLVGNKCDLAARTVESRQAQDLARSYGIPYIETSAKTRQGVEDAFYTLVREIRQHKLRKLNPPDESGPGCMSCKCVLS
Summary of the method: as §1

[3] = system: human lung cancer strain NCI-H441; format: cell-based
Summary of the method: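 Signal came from […] measured per well once the reagent was added. Beforehand, cells were cultured at 37°C and 5% carbon dioxide on a compound series serially diluted in dimethyl sulfoxide.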

[4] = ratio of KD for GDP-bound NRAS wild-type protein to KD for KRAS
[5] = ratio of KD for HRAS wild-type protein to KD for KRAS
[6] = ratio of the KD value with respect to GDP-bound NRAS wild-type protein to the KD value with respect to KRAS
[7] = ratio of the KD value with respect to HRAS wild-type protein to the KD value with respect to KRAS

Row | Compound | NRAS /KRAS [1, 4] | HRAS /KRAS [2, 5] | IC50 [3] [nM] | also measured
1 | CCCN1C(=O)[C@@H]2CCN2C(=O)[C@H](C)N(C)C(=O)[C@H]([C@@H](C)CC)NC(=O)[C@H](CC(C)C)N(C)C(=O)C[C@@H](C(=O)N2CCOCC2)N(C)C(=O)[C@H](C2CCCC2)N(C)C(=O)C2(CCCC2)NC(=O)[C@@H]2CCCN2C(=O)[C@H](CCc2ccc(C(F)(F)F)c(Cl)c2)NC(=O)CN(C)C(=O)[C@@H]1C1CCCC1 [PP0054] ([NMeL]I[NMeA][Aze][X21][Sar][hPhe(3-Cl-4-CF3)]P[Ac5c][NMeGly(cPent)][NMeD]-Morpholide; lactam N-11) | C (A compound having a KD ratio of 0.1 or more and less than 3 is denoted as C) | C (A compound having a KD ratio of 0.1 or more and less than 3 is denoted as C) |  | IC50 ([3]; NCI-H441 cells, 4 days, CellTiter-Glo, read-out: NCl-H441 IC50): 82 nM
2 | C#CC[C@H]1C(=O)N[C@@H]([C@@H](C)CC)C(=O)N(C)CC(=O)N(C)[C@H]2CCCCN(C2=O)[C@@H](Cc2ccc(C(F)(F)F)cc2)C(=O)N(C)CC(=O)N[C@@H](CCc2cc(F)c(C(F)(F)F)c(F)c2)C(=O)N2C[C@H](OCC)C[C@H]2C(=O)NC2(CCC2)C(=O)N(C)[C@@H](C2CCCC2)C(=O)N(C)[C@H](C(=O)N2CCOCC2)CC(=O)N1C [PP0711] |  |  | 6.5 | NRAS /KRAS [1, 6]: C (A compound having a KD ratio of 0.1 or more and less than 3 is denoted as C); HRAS /KRAS [2, 7]: B (a compound having 3 or more and less than 10 is denoted as B)
3 | CCO[C@@H]1C[C@H]2C(=O)N(C)C3(CCC3)C(=O)N(C)[C@@H](C3CCCC3)C(=O)N(C)[C@H](C(=O)N(C)C)CC(=O)N(C)[C@@H](CC3CC3)C(=O)N[C@@H]([C@@H](C)CC)C(=O)N3CCC[C@H]3C(=O)N(C)[C@H]3C/C=C\CCN(C3=O)[C@@H](Cc3ccc(C)cc3)C(=O)N(C)CC(=O)N[C@@H](CCc3cc(F)c(C(F)(F)F)c(F)c3)C(=O)N2C1 [PP1797] |  |  | 5.1 | NRAS /KRAS ([1]; ratio of KD value for GDP-bound NRAS wild-type protein to KD value for KRAS (SPR)): A (a compound having 10 or more and less than 20 is denoted as A); HRAS /KRAS ([2]; ratio of KD value for HRAS wild-type protein to KD value for KRAS (SPR)): A (a compound having 10 or more and less than 20 is denoted as A)
4 | CCCN1C(=O)CN(C)C(=O)CN(C)C(=O)[C@H]([C@@H](C)CC)NC(=O)[C@H](CC(C)C)N(C)C(=O)C[C@@H](C(=O)N2CCOCC2)N(C)C(=O)[C@H](C2CCCC2)N(C)C(=O)C2(CCC2)NC(=O)[C@@H]2CCCN2C(=O)[C@H](CCc2ccc(C(F)(F)F)c(Cl)c2)NC(=O)CN(CC)C(=O)[C@@H]1Cc1ccc(C(F)(F)F)cc1 [PP1950] ([NMeL]I[Sar][Sar][NPrPhe(4-CF3)][NEtG][hPhe(3-Cl-4-CF3)]P[Ac4c][NMeGly(cPent)][NMeD]-Morpholide; lactam N-11) |  |  | 32.5 | NRAS /KRAS [1, 6]: B (a compound having 3 or more and less than 10 is denoted as B); HRAS /KRAS [2, 7]: C (A compound having a KD ratio of 0.1 or more and less than 3 is denoted as C)
5 | CCCN1CC(=O)NC2(CCCC2)C(=O)N(C)[C@@H](C2CCCC2)C(=O)N(C)[C@H](C(=O)N2CCOCC2)CC(=O)N(C)[C@@H](CC(C)C)C(=O)N[C@@H]([C@@H](C)CC)C(=O)N(C)[C@@H](C)C(=O)N2CC[C@H]2C(=O)N(CCC)[C@@H](Cc2ccc(C(F)(F)F)cc2)C(=O)N(C)CC(=O)N[C@@H](CCc2ccc(C(F)(F)F)c(Cl)c2)C1=O [PP0288] ([NMeL]I[NMeA][Aze][NPrPhe(4-CF3)][Sar][hPhe(3-Cl-4-CF3)][NPrGly][Ac5c][NMeGly(cPent)][NMeD]-Morpholide; lactam N-11) | C (A compound having a KD ratio of 0.1 or more and less than 3 is denoted as C) | B (a compound having 3 or more and less than 10 is denoted as B) | 14.3 | 
6 | CC[C@H](C)[C@@H]1NC(=O)[C@H](CC(C)C)N(C)C(=O)C[C@@H](C(=O)N2CCOCC2)N(C)C(=O)[C@H](C2CCCC2)N(C)C(=O)C2(CCCC2)NC(=O)[C@@H]2CCCN2C(=O)[C@H](CCc2ccc(C(F)(F)F)c(Cl)c2)NC(=O)CN(C)C(=O)[C@H](Cc2ccc(C)cc2)N(CC2CC2)C(=O)CN(C)C(=O)CN(C)C1=O [PP0064] ([NMeL]I[Sar][Sar][X49][Sar][hPhe(3-Cl-4-CF3)]P[Ac5c][NMeGly(cPent)][NMeD]-Morpholide; lactam N-11) | C (A compound having a KD ratio of 0.1 or more and less than 3 is denoted as C) | C (A compound having a KD ratio of 0.1 or more and less than 3 is denoted as C) | 9.9 | 
7 | CCO[C@@H]1C[C@H]2C(=O)NC3(CCC3)C(=O)N(C)[C@@H](C3CCCC3)C(=O)N(C)[C@H](C(=O)N(C)CCOC)CC(=O)N(C)[C@@H](CC(C)C)C(=O)N[C@@H]([C@@H](C)CC)C(=O)N(C)CC(=O)N(C)[C@H]3C/C=C\CCN(C3=O)[C@@H](Cc3ccc(C(F)(F)F)cc3)C(=O)N(C)CC(=O)N[C@@H](CCc3ccc(C(F)(F)F)c(OC)c3)C(=O)N2C1 [PP1324] |  |  | 4.4 | NRAS /KRAS ([1]; ratio of KD with respect to GDP-bound NRAS wild-type protein to KD with respect to KRAS): A (a compound having 10 or more and less than 20 is denoted as A); HRAS /KRAS ([2]; ratio of KD with respect to HRAS wild-type protein to KD with respect to KRAS): A (a compound having 10 or more and less than 20 is denoted as A)
